We go through three molecules from ChEMBL document CHEMBL4622909, “PARP inhibitor cyanine dye conjugate with enhanced cytotoxic and antiproliferative activity in patient derived glioblastoma cell lines” (Bioorg Med Chem Lett, 2020).

Activity calls are given as the source filed them. No cut-off for these calls is given here.

Test [1] deals with GBM. Put plainly: Cytotoxicity against human patient derived GBM cells assessed as reduction in cell viability measured after 48 hrs by Hoechst staining based assay. In kind it is functional.
Test [2] deals with GBM. Put plainly: Synergistic cytotoxicity against human patient derived GBM cells assessed as reduction in cell viability measured after 48 hrs in presence of temozolomide by Hoechst staining based assay. In kind it is functional.
Test [3] concerns GBM. Put plainly: Antiproliferative activity against human patient derived GBM cells assessed as reduction in cell proliferation measured after 48 hrs by Edu incorporation assay. The class given is functional, cell-based.
Test [4] deals with GBM. Put plainly: cells. In kind it is functional, cell-based. The note with it: Homo sapiens, 48 h.
Description: Synergistic antiproliferative activity against human patient derived GBM cells assessed as reduction in cell proliferation measured after 48 hrs in presence of temozolomide by Edu incorporation assay
Test [5] relates to GBM. Put plainly: Antiproliferative activity against human patient derived GBM cells assessed as reduction in cell proliferation measured after 48 hrs by Edu incorporation assay relative to compound alone. The class given is functional.
In test [6] the test system is GBM. Put plainly: Ratio of EC50 for cytotoxicity against human patient derived GBM assessed as reduction in cell viability measured after 48 hrs by Hoechst staining based assay to EC50 for synergistic cytotoxicity against human patient derived GBM assessed as reduction in cell viability measured after 48 hrs in presence of temozolomide by Hoechst staining based assay. The class given is functional.

Test [7] deals with GBM. Put plainly: Potency index, ratio of rucaparib IC50 to test compound IC50 for human patient derived GBM cells assessed as reduction in cell viability measured after 48 hrs by Hoechst staining based assay. In kind it is functional.
In test [8] the test system is GBM. Put plainly: Potency index, ratio of IR-786 IC50 to test compound IC50 for human patient derived GBM cells assessed as reduction in cell viability measured after 48 hrs by Hoechst staining based assay. The class given is functional.
The subject of test [9] is GBM. Put plainly: Potency index, ratio of IR-786 IC50 to test compound IC50 for synergistic cytotoxicity against human patient derived GBM cells assessed as reduction in cell viability measured after 48 hrs in presence of temozolomide by Hoechst staining based assay. The class given is functional.
The test system of test [10] is GBM. Put plainly: Antiproliferative activity against human patient derived GBM cells assessed as reduction in cell proliferation up to 100 uM measured after 48 hrs by Edu incorporation assay. In kind it is functional, cell-based.

For the molecule `CNCc1ccc(-c2[nH]c3cc(F)cc4c3c2CCNC4=O)cc1` [RUCAPARIB], the half-maximal effective concentration (EC50) with GBM [1] and in the test on GBM [2] was greater than 100000 nM in each case. The figures for the IC50 in the test with GBM [3] and in the test with GBM [4] were 53400 nM and 2260 nM, respectively. In addition, the “Ratio IC50” value with GBM [5] came out at 24.

Take `CN1/C(=C/C=C2\CCCC(/C=C/C3=[N+](C)c4ccccc4C3(C)C)=C2N2CCN(c3ccc(-c4[nH]c5cc(F)cc6c5c4CCNC6=O)cc3)CC2)C(C)(C)c2ccccc21.[I-]`: the EC50 (as a rule, the concentration that produces a half-maximal response) with GBM [1] was found to be 128 nM; in the test with GBM [2] it was 56 nM. Besides, in the test with GBM [6], the “Ratio EC50” value was determined as 2. The IC50 (in general, the concentration needed to halve the response being measured) with GBM [3] was 21 nM; with GBM [4], 20 nM. Also, the “Ratio IC50” value in the test with GBM [7] turned out to be 780; in the test on GBM [8], 13.5; with GBM [9], 7; in the test with GBM [5] it was 2.

Take `Cn1nnc2c(C(N)=O)ncn2c1=O`: the result with GBM [10] was inactive.
